Assay results as given in PMC4871512, “Drug-Based Lead Discovery: The Novel Ablative Antiretroviral Profile of Deferiprone in HIV-1-Infected Cells and in HIV-Infected Treatment-Naive Subjects of a Double-Blind, Placebo-Controlled, Randomized Exploratory Trial” (PLoS ONE, 2016).

Columns and labels:
HIV-1 = assay: Proof-of-concept trial: HIV-1 RNA in plasma of treatment-naive HIV-infected subjects (ICR, ICD); type: in vivo, human; details: for period for which the decrease of HIV-1 RNA persists off-drug: 7-day / 17-dose course, responsive cohort; for ICR relative to pre-treatment level: regimen-compliant responsive sub-group (Subjects 1, 5, 20, 24)
Procedure: Cell-free supernatants were used for p24 and HIV-1 RNA measurements. p24 core antigen in the supernatant was quantified by ELISA (Retrotek HIV-1 p24®; ZeptoMetrix Corp.; Buffalo, NY). HIV-1 RNA copy number in the supernatant of PBMC cultures and in plasma of trial subjects enrolled in the exploratory deferiprone trial was determined with a PCR-based and FDA-approved assay (Amplicor HIV-1 Monitor®; Roche Diagnostics Corp.; Indianapolis, IN). For clinical samples, the assay was used per the Standard Specimen Processing Procedure (sensitivity limit 400 copies/ml); for cell culture samples, the assay was used in both the Standard Specimen Processing and the UltraSensitive Specimen Processing Procedure (sensitivity limit 50 copies/ml). If not specified further, the term “log10” designates the amount of HIV-1 RNA in the dimensions [log10 / ml]. The Roche Amplicor HIV-1 DNA Test (Roche Diagnostics Corp.; Indianapolis, IN) was used for detection of HIV-1 DNA with the primer pair SK431/462, which amplifies a highly conserved region of the gag genome of HIV-1 subtype B DNA. […] Apoptotic DNA fragmentation was quantified flow-cytometrically, using a terminal deoxynucleotide transferase dUTP nick end-labeling (TUNEL) assay (APO-BRDU™; Phoenix Flow Systems; San Diego, CA). All experiments and assays were performed at least in duplicate.
(§1) Eligible for enrollment were volunteers of both genders, between 18 and 60 years old, healthy or HIV-infected with CD4 count ≥ 300/mm^3, viral load of ≥ 10,000 copies/ml, and absence of active infectious disease; AIDS-defining condition; febrile illness; liver or kidney disease; hypersensitivity to test material; and medication requirement. The protocol involved a screening visit; a pharmacokinetic and antiretroviral study requiring admission to a specialized Phase I research unit for a week of on-drug treatment, with multiple blood draws from a peripheral vein after oral intake of the first deferiprone dose, either 33 mg/kg or 50 mg/kg, and at least three repeat blood draws (first stage of protocol); an off-drug observation period of eight weeks, which comprised at least two repeat visits (second stage of protocol); and an exit visit. Enrollment complied with the applicable standard-of-care specified in the ‘Clinical Guidelines for the Management of HIV & AIDS in Adults and Adolescents’, National Department of Health, Republic of South Africa. Primary parameters included safety and tolerability (e.g. vital signs, laboratory variables, cardiac monitoring by ECG) and antiretroviral activity (e.g. RNA copies of HIV-1). Secondary parameters included pharmacokinetic variables (e.g. peak serum concentration) in serum, drawn from a peripheral vein at fixed times (0, 0.5, 1, 1.5, 2, 3, 4, 6, 9, 12) after the ingestion of the first dose on Day 1 of the study. The concentration of the nonconjugated, chelation-competent form of deferiprone in serum was determined by UV detection at 280 nm, after separation via reversed-phase HPLC under isocratic conditions. The lower limit of deferiprone quantitation was 1.466 μM, or 0.204 μg/ml. HIV-1 RNA was measured as described and used as log10-transformed parameter in all calculations.
26 consecutive subjects were randomly enrolled in the IRB-approved proof-of-concept trial and gave written informed consent to be studied (Supporting Information, S2 Text); recruitment of trial subjects commenced in November 2006 and follow-up terminated in April 2008.

[1] = Proof-of-concept trial: safety and tolerability
Procedure: Since we were dosing a population with previously untested tolerance for deferiprone, the exploratory trial of this orally administered drug was conducted under uninterrupted medical observation and standardized conditions, e.g. uniform diet to minimize confounding food effects, in a specialized in-patient research unit for Phase I protocols. In-unit supervision lasted for the entire one-week duration of deferiprone ingestion (first stage of protocol S1 in Fig 6), which was intentionally restricted to the oral intake of in total just 17 doses. After discharge from the research unit, outpatient follow-up occurred at 4 weeks and 8 weeks (second stage of protocol S2 in Fig 6). […] Using drug toxicity grading criteria proposed by NIH [97, 98], we defined the following tolerability profile:
as §1
26 consecutive subjects were randomly enrolled in the IRB-approved proof-of-concept trial and gave written informed consent to be studied (Supporting Information, S2 Text); recruitment of trial subjects commenced in November 2006 and follow-up terminated in April 2008. Double-blind enrollment comprised i) 18 HIV-infected, asymptomatic and—according to the applicable standard-of-care [74]–cART-ineligible individuals, who either received placebo (N = 4 [Protocol Group 4]) or deferiprone (Ferriprox®) administered orally every 8 hours in three equal doses under medical supervision, totaling initially either 99 mg/kg/day (N = 7 [Protocol Group 1]) or subsequently 150 mg/kg/day (N = 7 [Protocol Group 3]); and ii) 8 uninfected individuals either on placebo (N = 2 [Protocol Group 5]) or daily deferiprone (N = 6; 150 mg/kg/day [Protocol Group 2]); CD4 cells were quantified before, during, and at the end of the one-week treatment period. […] Visually identical tablets of deferiprone / placebo were administered once on Days 1 and 7, and thrice on Days 2–6 of protocol.

[2] = after 8 weeks off-drug, P = 0.003

In the case of `Cc1c(O)c(=O)ccn1C` [deferiprone, 3-hydroxy-1,2-dimethylpyridin-4-one], the “protocol-completing subjects with no viral load change” value (HIV-1; 99 mg group (33 mg/kg/dose orally three times per day)) was 66%, the “ICR after the one-week treatment” value (HIV-1; 99 mg group, Subjects 1, 2, 5, achieved threshold and had a viral response) was -0.36 log10 and the “ICR after the one-week treatment” value (HIV-1; 99 mg group, Subjects 4, 6, 8, did not achieve the ≥150 μM threshold) was “+0.23 log10”. For the same compound, the “ICD between threshold-achieving responders and non-achievers” value (HIV-1; 99 mg group, one-week treatment, P = 0.004) was 0.59 log10, the “within-subject variability of HIV-1 RNA reached after the one-week treatment” value (HIV-1; 99 mg/kg group) was -0.45 log10 and the “within-subject variability of HIV-1 RNA reached after the one-week treatment” value (HIV-1; 150 mg group) was -0.53 log10. The “protocol-completing subjects with no viral load change” value (HIV-1; 150 mg group (50 mg/kg/dose orally three times per day)) was 25%, the “ICR after the one-week treatment” value (HIV-1; 150 mg group, Subjects 20, 22, 24, cmax ≥150 μM) was -0.39 log10 and the “period for which the decrease of HIV-1 RNA persists off-drug” value (HIV-1) was 8 weeks. The “period for which the decrease of HIV-1 RNA persists off-drug” value (HIV-1; listed as Deferiprone) was “at least 8 weeks”, the “off-drug retention of the HIV-1 RNA reduction as multiple of the drug's half-life” value (HIV-1; 8 weeks off-drug after 17 doses) was “over 670 times” and the “average level of HIV-1 RNA” value (HIV-1; 'decrease' cohort, after 4 weeks off-drug) was 4.44 log10. The “average level of HIV-1 RNA” value (HIV-1; 'decrease' cohort, after 8 weeks off-drug) was 4.52 log10, the “average level of HIV-1 RNA” value (HIV-1; 'decrease' cohort, after 7 days (4.90 log10 initially)) was 4.53 log10 and the “average level of HIV-1 RNA” value (HIV-1; 'no-decrease' cohort, after 4 weeks off-drug) was 4.83 log10. For the same compound, the “average level of HIV-1 RNA” value (HIV-1; 'no-decrease' cohort, after 8 weeks off-drug) was 4.70 log10, the “average level of HIV-1 RNA” value (HIV-1; 'no-decrease' cohort, after 7 days (4.53 log10 initially)) was 4.74 log10 and the “ICR after 8 weeks off-drug” value (HIV-1; DTD 'decrease' cohort) was -0.31 log10. The “ICR at the end of the first stage (S1, Day 7 vs Day 1)” value (HIV-1; DTD 'decrease' cohort, N = 6) was -0.37 log10, the “ICR after 8 weeks off-drug” value (HIV-1; DTD 'no-decrease' cohort) was “+0.17 log10” and the “ICR at the end of the first stage (S1, Day 7 vs Day 1)” value (HIV-1; DTD 'no-decrease' cohort, N = 5) was “+0.21 log10”. The “ICR at the end of 8 weeks off-drug” value (HIV-1; Group A, cmax ≥150 μM) was -0.28 log10, the “intra-cohort response (ICR), HIV-1 RNA Day 7 relative to Day 1” value (HIV-1; Group A, cmax ≥150 μM on either dosage, N = 7, 7 days on-drug) was -0.27 log10 and the “subjects who achieved the threshold (cmax ≥150 μM) and showed a decline in viral load” value (HIV-1; Group A, one-week treatment) was 6 of the 7. The “viral load in the 4 subjects who did not achieve the threshold” value (HIV-1; Group B, one-week treatment) was “did not show a decline in viral load”, the “ICR at the end of 8 weeks off-drug” value (HIV-1; Group B, threshold-failing) was “+0.24 log10” and the “change in viral load during the one-week treatment” value (HIV-1; Subject 19, 150 mg group, cmax 128 μM) was “+0.02 log10”. The “ICD Group A vs Group B” value (HIV-1; [2]) was 0.52 log10, the “ICD regimen-compliant 'decrease' sub-group vs 'no-decrease' cohort” value (HIV-1; [2]) was 0.61 log10 and the “ICD 'decrease' vs 'no-decrease' cohort” value (HIV-1; after 8 weeks off-drug, P = 0.008) was 0.48 log10. For the same compound, the “intercohort difference (ICD) Group A vs Group B” value (HIV-1; after one week on-drug) was 0.44 log10, the “ICD 'decrease' vs 'no-decrease' cohort” value (HIV-1; end of first stage S1, P = 0.0001) was 0.58 log10 and the “intra-cohort response (ICR), HIV-1 RNA Day 7 relative to Day 1” value (HIV-1; human, in vivo) was “+0.17 log10”. For the same compound, the “ICR relative to pre-treatment level” value (HIV-1; after 8 weeks off-drug) was -0.38 log10, the “ICR relative to pre-treatment level” value (HIV-1; after 7 days on-drug) was -0.40 log10 and the “enrollees who completed the study” value ([1]; 99 mg group) was 86%. The “persons with elevations of transaminases and γ-glutamyl transpeptidase” value ([1]; 99 mg group, N = 7 HIV-infected, end of the treatment week) was 2, the “grade of transaminase elevations” value ([1]; 99 mg group, the 2 affected persons) was “Grade 3 and Grade 2” and the “grade of γ-glutamyl transpeptidase elevations” value ([1]; 99 mg group, the 2 affected persons, respectively) was “Grade 1 and Grade 2”. For the same compound, the “enrollees who completed the study” value ([1]; 150 mg group overall, N = 13) was 61%, the “persons with a rise in serum liver enzymes” value ([1]; 150 mg group, HIV-uninfected) was 2 of 6 and the hematologic adverse event ([1]; 150 mg group, Subject 22 (cmax 285 μM), medication discontinued on Day 3) was “agranulocytosis (Grade 4 absolute neutrophil count)”. For the same compound, the “grade of γ-glutamyl transpeptidase elevation” value ([1]; 150 mg group, Subject 22 and Subject 24) was “Grade 2”, the “persons with a rise in serum liver enzymes” value ([1]; 150 mg group, asymptomatic HIV-infected) was 4 of 7 and the “grade of transaminase elevations” value ([1]; 150 mg group, the four affected HIV-infected persons) was “three Grade 2 and one Grade 4”. The protocol completion ([1]; 150 mg group, those with HIV infection) was 57%, the “rise in serum liver enzymes, grade” value ([1]; HIV-uninfected persons on 150 mg/day, Subject 9 and Subject 12) was “Grade 1 transaminase elevation” and the “spontaneous correction of the neutrophil count” value ([1]; Subject 22) was “within two weeks off-drug”. The “spontaneous correction of the liver function abnormality” value ([1]; Subject 22 and Subject 24) was “within one week off-drug”, the “heart rate-corrected QT interval on-drug” value ([1]; Subject 317, 150 mg group, Grade 2 QTc prolongation) was 491 ms and the “increase of heart rate-corrected QT interval” value ([1]; Subject 317, 150 mg group, baseline 441 ms, first stage, judged likely not causally linked) was 50 ms. For the same compound, the “off-drug rate-corrected QT interval” value ([1]; Subject 317, several days after the end of drug intake) was “up to 488 ms”, the “effect of dose increase on tolerability” value ([1]; in vivo) was “markedly reduced the tolerability” and the neurological adverse event ([1]; one HIV-uninfected person, at 6 and 8 days after the end of deferiprone treatment) was “convulsive episodes”.
